Experimental data reported in patent publication US12077538B2, “Diacylglycerol kinase (DGK) alpha inhibitors and uses thereof” (priority 2022, dated 2024).

Test system: not listed separately
Test: Pharmacokinetic Profile Evaluation (mouse PK)
Format: in vivo, CD-1 mice
Conditions: CD-1, plasma, oral administration at 5 mg/kg, read-out: AUC00~∞
Protocol: Species and strain: CD-1 mice of SPF. Source: Sino-British SIPPR/BK Lab Animal Ltd, Shanghai. 3 mice were intravenously administrated with given compounds (Formulation: 5% DMSO+10% Solutol+85% Saline) or orally gavage administrated with given compounds (Formulation: 5% DMSO+10% Solutol+85% Saline). The blood samples were taken via cephalic vein at timepoints 0.083 h, 0.25 h, 0.5 h, 1 h, 2 h, 4 h, 8 h and 24 h after intravenous administration or at timepoints 0.25 h, 0.5 h, 1 h, 2 h, 4 h, 6 h, 8 h and 24 h after oral gavage administration, 30 μL/time point. Blood samples were placed in tubes containing K2-EDTA and stored on ice until centrifuged. The blood samples were centrifuged at 6800 g for 6 minutes at 2-8° C. within 1 h after collected and stored frozen at approximately −80° C. An aliquot of 10 μL plasma samples were protein precipitated with 200 μL MeOH in which contains 10 ng/mL Verapamil (IS). The mixture was vortexed for 1 min and centrifuged at 18000 g for 7 min. Transfer 180 μL supernatant to 96 well plates. An aliquot of 6 μL supernatant was injected for LC-MS/MS analysis by LC-MS/MS-04 (API4000) instrument. The analytical results were confirmed using quality control samples for intra-assay variation. The accuracy of >66.7% of the quality control samples should be between 80-120% of the known value(s). Standard set of parameters including Area Under the Curve (AUC(0-t) and AUC(0-∞)), elimination half-live (T1/2), maximum plasma concentration (Cmax), will be calculated using noncompartmental analysis modules in FDA certified pharmacokinetic program Phoenix WinNonlin 7.0 (Pharsight, USA).

Compound	AUC [ng·h/mL]
Cc1ccc2oc(C3CCN(c4cc(=O)n(C)c5ccc(C#N)nc45)CC3)nc2c1 [Example 1, 5-methyl-8-(4-(5-methylbenzo[d]oxazol-2-yl)piperidin-1-yl)-6-oxo-5,6-dihydro-1,5-naphthyridine-2-carbonitrile]	6150
Cn1c(=O)cc(N2CCC(c3nc4cc(F)ccc4o3)CC2)c2nc(C#N)ccc21 [Example 12, 8-(4-(5-fluorobenzo[d]oxazol-2-yl)piperidin-1-yl)-5-methyl-6-oxo-5,6-dihydro-1,5-naphthyridine-2-carbonitrile]	5940
Cc1ccc2oc(C3CCN(c4cc(=O)n(C)c5cc(OCCO)c(C#N)nc45)CC3)nc2c1 [Example 23, 3-(2-hydroxyethoxy)-5-methyl-8-(4-(5-methylbenzo[d]oxazol-2-yl)piperidin-1-yl)-6-oxo-5,6-dihydro-1,5-naphthyridine-2-carbonitrile]	12100
Cc1ccc2oc(C3CCN(c4cc(=O)n(C)c5cc(O[C@@H]6CCOC6)c(C#N)nc45)CC3)nc2c1 [Example 28, (R)-5-methyl-8-(4-(5-methylbenzo[d]oxazol-2-yl)piperidin-1-yl)-6-oxo-3-((tetrahydrofuran-3-yl)oxy)-5,6-dihydro-1,5-naphthyridine-2-carbonitrile]	3460

Test system: Human Pan T cells
Test: IL-2 Release Detection Assay
Format: cell-based
Conditions: T-cell, IL-2 in supernatant by ELISA, anti-CD3 pre-coated plate, 24 hours
Protocol: Add dilutions of compounds into the cells and incubate at 37° C. &5% CO2 for 24 hours. IL-2 in cell supernatant was detected by ELISA Kit (R&D, DY202). […] Top and Bottom: Plateaus in same units as Y. Log EC50: same log units as X. Activation fold: Top activation/DMSO control. Activation % at 100 nM: Activation of non-linear regression equation curve at the concentration of 100 nM/DMSO control*100%.

Compound	EC50 [nM]
Cc1ccc2oc(C3CCN(c4cc(=O)n(C)c5ccc(C#N)nc45)CC3)nc2c1 [Example 1, 5-methyl-8-(4-(5-methylbenzo[d]oxazol-2-yl)piperidin-1-yl)-6-oxo-5,6-dihydro-1,5-naphthyridine-2-carbonitrile]	452
Cc1ccc2oc(C3CCN(c4cc(=O)n(C)c5ccc(Cl)cc45)CC3)nc2c1 [Example 2, 6-chloro-1-methyl-4-(4-(5-methylbenzo[d]oxazol-2-yl)piperidin-1-yl)quinolin-2(1H)-one]	326
Cc1ccc2oc(C3CCN(c4cc(=O)n(C)c5ccc(C#N)cc45)CC3)nc2c1 [Example 3, 1-methyl-4-(4-(5-methylbenzo[d]oxazol-2-yl)piperidin-1-yl)-2-oxo-1,2-dihydroquinoline-6-carbonitrile]	174
Cc1ccc2oc(C3CCN(c4nc(=O)n(C)c5ccc(Cl)cc45)CC3)nc2c1 [Example 4, 6-chloro-1-methyl-4-(4-(5-methylbenzo[d]oxazol-2-yl)piperidin-1-yl)quinazolin-2(1H)-one]	200
Cc1ccc2oc(C3CCN(c4c(C#N)c(=O)n(C)c5ccc(Cl)nc45)CC3)nc2c1 [Example 9, 6-chloro-1-methyl-4-(4-(5-methylbenzo[d]oxazol-2-yl)piperidin-1-yl)-2-oxo-1,2-dihydro-1,5-naphthyridine-3-carbonitrile]	476
Cc1ccc2oc(C3CCN(c4cc(=O)n(C)c5ccc(Cl)nc45)CC3)nc2c1 [Example 10, 6-chloro-1-methyl-4-(4-(5-methylbenzo[d]oxazol-2-yl)piperidin-1-yl)-1,5-naphthyridin-2(1H)-one]	1250
Cn1c(=O)cc(N2CCC(c3nc4cc(F)ccc4o3)CC2)c2nc(Cl)ccc21 [Example 11, 6-chloro-4-(4-(5-fluorobenzo[d]oxazol-2-yl)piperidin-1-yl)-1-methyl-1,5-naphthyridin-2(1H)-one]	832
Cn1c(=O)cc(N2CCC(c3nc4cc(F)ccc4o3)CC2)c2nc(C#N)ccc21 [Example 12, 8-(4-(5-fluorobenzo[d]oxazol-2-yl)piperidin-1-yl)-5-methyl-6-oxo-5,6-dihydro-1,5-naphthyridine-2-carbonitrile]	262
COCCOc1cc2c(nc1Cl)c(N1CCC(c3nc4cc(C)ccc4o3)CC1)cc(=O)n2C [Example 15, 6-chloro-7-(2-methoxyethoxy)-1-methyl-4-(4-(5-methylbenzo[d]oxazol-2-yl)piperidin-1-yl)-1,5-naphthyridin-2(1H)-one]	963
COCCOc1cc2c(nc1C#N)c(N1CCC(c3nc4cc(C)ccc4o3)CC1)cc(=O)n2C [Example 16, 3-(2-methoxyethoxy)-5-methyl-8-(4-(5-methylbenzo[d]oxazol-2-yl)piperidin-1-yl)-6-oxo-5,6-dihydro-1,5-naphthyridine-2-carbonitrile]	346
Cc1ccc2oc(C3CCN(c4cc(=O)n(C)c5cc(NCCO)c(Cl)nc45)CC3)nc2c1 [Example 17, 6-chloro-7-((2-hydroxyethyl)amino)-1-methyl-4-(4-(5-methylbenzo[d]oxazol-2-yl)piperidin-1-yl)-1,5-naphthyridin-2(1H)-one]	1200
Cc1ccc2oc(C3CCN(c4cc(=O)n(C)c5cc(NCCO)c(C#N)nc45)CC3)nc2c1 [Example 18, 3-((2-hydroxyethyl)amino)-5-methyl-8-(4-(5-methylbenzo[d]oxazol-2-yl)piperidin-1-yl)-6-oxo-5,6-dihydro-1,5-naphthyridine-2-carbonitrile]	123
Cc1ccc2oc(C3CCN(c4cc(=O)n(C)c5cc(OC6CCOC6)c(C#N)nc45)CC3)nc2c1 (stereo not drawn) [Example 21, 5-methyl-8-(4-(5-methylbenzo[d]oxazol-2-yl)piperidin-1-yl)-6-oxo-3-((tetrahydrofuran-3-yl)oxy)-5,6-dihydro-1,5-naphthyridine-2-carbonitrile]	132
Cc1ccc2oc(C3CCN(c4cc(=O)n(C)c5cc(OCCO)c(C#N)nc45)CC3)nc2c1 [Example 23, 3-(2-hydroxyethoxy)-5-methyl-8-(4-(5-methylbenzo[d]oxazol-2-yl)piperidin-1-yl)-6-oxo-5,6-dihydro-1,5-naphthyridine-2-carbonitrile]	294
Cc1ccc2oc(C3CCN(c4cc(=O)n(C)c5cc(OCCCO)c(C#N)nc45)CC3)nc2c1 [Example 24, 3-(3-hydroxypropoxy)-5-methyl-8-(4-(5-methylbenzo[d]oxazol-2-yl)piperidin-1-yl)-6-oxo-5,6-dihydro-1,5-naphthyridine-2-carbonitrile]	512
Cc1ccc2oc(C3CCN(c4cc(=O)n(C)c5cc(O[C@H]6CCOC6)c(C#N)nc45)CC3)nc2c1 [Example 29, (S)-5-methyl-8-(4-(5-methylbenzo[d]oxazol-2-yl)piperidin-1-yl)-6-oxo-3-((tetrahydrofuran-3-yl)oxy)-5,6-dihydro-1,5-naphthyridine-2-carbonitrile]	446
Cc1ccc2oc(N3CC=C(c4cc(=O)n(C)c5cc(OCCO)c(C#N)nc45)CC3)nc2c1 [Example 30, 3-(2-hydroxyethoxy)-5-methyl-8-(1-(5-methylbenzo[d]oxazol-2-yl)-1,2,3,6-tetrahydropyridin-4-yl)-6-oxo-5,6-dihydro-1,5-naphthyridine-2-carbonitrile]	682
